Data on 20 molecules can be found in patent US20230257347A1 (priority 2020, published 2023).

Assay [1] has as its target T1, Nicotinic acetylcholine Receptor α4 β2 (nAChR(a4/b2)) (Homo sapiens, UniProt P17787+P43681).
T1 construct: expressed in transfected cells
Put plainly: cell-based. The conditions noted are these: nAChR(a4/b2), Ion Channel, blocker; read-out: IC50 (μM) Antag./Blocker/Inhibitor.

In assay [2] the target is Gamma-aminobutyric acid Receptor A (GABAA) (Homo sapiens, UniProt P14867+P47870). The assay is classed as cell-based. The conditions noted are these: Ion Channel, blocker, read-out: IC50 (μM) Antag./Blocker/Inhibitor.
Chain of Gamma-aminobutyric acid Receptor A (GABAA) (P14867 28-456): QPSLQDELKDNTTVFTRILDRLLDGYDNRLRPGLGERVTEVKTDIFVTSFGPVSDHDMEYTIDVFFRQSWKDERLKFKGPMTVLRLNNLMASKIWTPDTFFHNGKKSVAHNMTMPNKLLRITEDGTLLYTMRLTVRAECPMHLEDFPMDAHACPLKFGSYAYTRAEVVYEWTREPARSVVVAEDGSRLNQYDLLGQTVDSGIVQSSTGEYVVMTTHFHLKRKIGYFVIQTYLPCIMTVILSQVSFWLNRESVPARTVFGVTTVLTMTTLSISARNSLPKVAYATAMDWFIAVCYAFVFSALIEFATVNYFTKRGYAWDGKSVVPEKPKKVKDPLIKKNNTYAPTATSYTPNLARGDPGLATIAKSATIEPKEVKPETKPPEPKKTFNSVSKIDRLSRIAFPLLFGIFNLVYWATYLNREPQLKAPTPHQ
Chain of Gamma-aminobutyric acid Receptor A (GABAA) (P47870 26-512): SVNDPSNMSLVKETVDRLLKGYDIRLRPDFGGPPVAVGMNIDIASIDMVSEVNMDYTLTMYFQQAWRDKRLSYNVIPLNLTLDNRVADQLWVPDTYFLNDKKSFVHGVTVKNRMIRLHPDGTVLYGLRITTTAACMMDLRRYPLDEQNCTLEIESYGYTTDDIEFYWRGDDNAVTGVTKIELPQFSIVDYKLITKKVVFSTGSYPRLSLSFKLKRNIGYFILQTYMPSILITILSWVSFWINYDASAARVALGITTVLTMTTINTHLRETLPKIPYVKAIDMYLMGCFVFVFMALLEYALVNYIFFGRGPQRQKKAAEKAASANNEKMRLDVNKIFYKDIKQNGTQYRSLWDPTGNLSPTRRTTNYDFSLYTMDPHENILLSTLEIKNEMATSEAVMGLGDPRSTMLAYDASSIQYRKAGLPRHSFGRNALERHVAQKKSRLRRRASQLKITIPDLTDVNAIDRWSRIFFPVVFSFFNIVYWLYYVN
Chain of Gamma-aminobutyric acid Receptor A (GABAA) (P18507 40-475 partner): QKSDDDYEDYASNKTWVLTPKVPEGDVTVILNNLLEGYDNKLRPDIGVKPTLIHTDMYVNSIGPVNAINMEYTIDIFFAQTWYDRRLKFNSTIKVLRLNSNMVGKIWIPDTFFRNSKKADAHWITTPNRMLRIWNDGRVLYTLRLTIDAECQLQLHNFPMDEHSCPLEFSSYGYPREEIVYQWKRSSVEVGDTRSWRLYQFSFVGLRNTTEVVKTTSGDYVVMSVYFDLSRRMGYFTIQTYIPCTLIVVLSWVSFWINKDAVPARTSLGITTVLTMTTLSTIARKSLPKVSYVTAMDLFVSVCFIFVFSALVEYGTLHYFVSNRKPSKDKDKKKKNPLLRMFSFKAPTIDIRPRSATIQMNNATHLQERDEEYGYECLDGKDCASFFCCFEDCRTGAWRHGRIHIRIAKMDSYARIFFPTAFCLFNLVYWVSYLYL
The target of another assay is T2, MAOA (Homo sapiens, UniProt P21397).
T2 sequence (P21397 1-527): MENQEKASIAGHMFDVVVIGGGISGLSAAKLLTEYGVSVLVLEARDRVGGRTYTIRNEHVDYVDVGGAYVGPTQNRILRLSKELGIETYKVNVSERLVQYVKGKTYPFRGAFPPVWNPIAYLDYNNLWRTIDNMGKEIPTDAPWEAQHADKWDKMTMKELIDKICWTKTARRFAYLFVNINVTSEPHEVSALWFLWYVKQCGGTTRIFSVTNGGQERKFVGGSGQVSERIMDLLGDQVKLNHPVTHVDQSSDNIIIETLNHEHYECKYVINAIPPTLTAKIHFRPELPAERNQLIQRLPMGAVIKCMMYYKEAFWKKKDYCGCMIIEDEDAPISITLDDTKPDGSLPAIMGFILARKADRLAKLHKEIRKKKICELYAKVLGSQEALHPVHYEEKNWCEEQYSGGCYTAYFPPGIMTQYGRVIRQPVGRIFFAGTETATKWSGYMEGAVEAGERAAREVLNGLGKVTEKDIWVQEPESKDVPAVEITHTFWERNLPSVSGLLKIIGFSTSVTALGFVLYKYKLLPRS
The conditions noted are these: cited from earlier work; for IC50: read-out: MAOA IC50, Table 10, Source (1) Wagmann et al. 2017.

Assay [3] addresses T3, human 5-HT transporter (hSERT) (Homo sapiens, UniProt P31645).
T3 construct: expressed in transfected cells; host or cells: CHO
Put plainly: hSERT antagonist radioligand assay ([3H]imipramine), CHO cells. The assay is classed as binding. The text has this: Interactions with these transporters were therefore separately measured using two additional types of assays: an antagonist radioligand assay of inhibition of the human 5-HT transporter (hSERT) expressed in CHO cells (Tatsumi, M. et al. (1999), Eur. J. Pharmacol., 368: 277-283) and an assay measuring release of [^3H] […] While the former is sensitive to classic reuptake inhibition, the latter can detect the effects of substrates, which also induce release. Specific assay steps and reference compounds are given below for each assay type.
Three tryptamine derivatives were evaluated for inhibiting the human 5-HT transporter (hSERT) as expressed in CHO cells using an antagonist radioligand assay (Tatsumi, M. et al. 1999, Eur. J. Pharmacol., 368: 277-283). […] Test compounds were assayed in two trials at 3.0E-10, 3.0E-9, 3.0E-8, 3.0E-7, 3.0E-6, and 3.0E-5 M.

Assay [4] has as its target T4, Monoamine oxidase type A (MAOA) (Homo sapiens, UniProt P21397).
T4 construct: purchased Sigma
T4 sequence (P21397 1-527): T2 sequence (P21397 1-527)
Put plainly: Enzymatic assay, MAOA (kynuramine substrate). The assay is classed as biochemical. The conditions noted are these: for Hill: Hill of MAOA inhibition curve, Original data; for MAOA inhibition (MAOI or not, in words): original data.

Another assay concerns the target T5, human DAT (Homo sapiens, UniProt Q01959).
T5 construct: expressed in transfected cells
Description: hDAT release of [3H]dopamine, CHO cells. The assay is classed as cell-based. The conditions noted are these: for DAT/SERT ratio: (DAT EC50)^−1/(SERT EC50)^−1, larger numbers indicate higher DAT selectivity.

The target in another assay is T6, human SERT (Homo sapiens, UniProt P31645).
T6 construct: expressed in transfected cells
T6 sequence (P31645 whole entry): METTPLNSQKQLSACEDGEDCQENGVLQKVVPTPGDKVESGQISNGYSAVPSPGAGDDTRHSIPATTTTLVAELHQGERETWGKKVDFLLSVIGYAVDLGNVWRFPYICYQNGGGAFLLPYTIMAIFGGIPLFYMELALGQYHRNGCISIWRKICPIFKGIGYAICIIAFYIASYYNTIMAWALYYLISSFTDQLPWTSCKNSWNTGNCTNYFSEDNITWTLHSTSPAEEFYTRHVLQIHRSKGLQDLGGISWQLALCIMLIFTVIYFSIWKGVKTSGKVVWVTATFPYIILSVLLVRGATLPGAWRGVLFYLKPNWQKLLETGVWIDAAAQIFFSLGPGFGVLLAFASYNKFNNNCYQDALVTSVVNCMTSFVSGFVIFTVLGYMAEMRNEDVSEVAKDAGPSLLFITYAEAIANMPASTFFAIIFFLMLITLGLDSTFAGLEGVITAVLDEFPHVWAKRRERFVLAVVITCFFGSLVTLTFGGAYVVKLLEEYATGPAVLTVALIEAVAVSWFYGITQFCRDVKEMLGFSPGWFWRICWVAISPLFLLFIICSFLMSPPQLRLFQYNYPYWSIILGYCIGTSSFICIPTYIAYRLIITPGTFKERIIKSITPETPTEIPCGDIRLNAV
Description: hSERT release of [3H]serotonin, CHO cells. The assay is classed as cell-based.

For the next assay, the system named is neuritogenesis. Particulars: cited from earlier work.

Where two headings read alike, the source gives them in different places.

T3 sequence (P31645 whole entry): as above
T5 sequence (Q01959 whole entry): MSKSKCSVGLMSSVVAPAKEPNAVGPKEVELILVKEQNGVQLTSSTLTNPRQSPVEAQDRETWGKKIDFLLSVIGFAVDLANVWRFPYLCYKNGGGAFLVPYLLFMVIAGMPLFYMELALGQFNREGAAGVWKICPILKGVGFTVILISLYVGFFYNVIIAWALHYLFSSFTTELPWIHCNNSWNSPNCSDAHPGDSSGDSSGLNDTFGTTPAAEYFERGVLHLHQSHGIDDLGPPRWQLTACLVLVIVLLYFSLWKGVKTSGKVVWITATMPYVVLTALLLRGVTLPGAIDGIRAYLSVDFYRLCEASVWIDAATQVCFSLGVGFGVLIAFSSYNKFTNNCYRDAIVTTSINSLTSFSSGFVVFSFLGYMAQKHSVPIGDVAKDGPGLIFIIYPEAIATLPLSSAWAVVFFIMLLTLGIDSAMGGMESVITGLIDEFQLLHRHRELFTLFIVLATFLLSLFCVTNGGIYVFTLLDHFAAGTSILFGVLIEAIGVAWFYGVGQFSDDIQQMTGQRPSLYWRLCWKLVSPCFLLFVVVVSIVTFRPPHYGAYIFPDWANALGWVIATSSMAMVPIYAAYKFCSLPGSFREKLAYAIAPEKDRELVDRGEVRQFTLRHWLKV
T1 sequence (P43681 29-627 limits assumed): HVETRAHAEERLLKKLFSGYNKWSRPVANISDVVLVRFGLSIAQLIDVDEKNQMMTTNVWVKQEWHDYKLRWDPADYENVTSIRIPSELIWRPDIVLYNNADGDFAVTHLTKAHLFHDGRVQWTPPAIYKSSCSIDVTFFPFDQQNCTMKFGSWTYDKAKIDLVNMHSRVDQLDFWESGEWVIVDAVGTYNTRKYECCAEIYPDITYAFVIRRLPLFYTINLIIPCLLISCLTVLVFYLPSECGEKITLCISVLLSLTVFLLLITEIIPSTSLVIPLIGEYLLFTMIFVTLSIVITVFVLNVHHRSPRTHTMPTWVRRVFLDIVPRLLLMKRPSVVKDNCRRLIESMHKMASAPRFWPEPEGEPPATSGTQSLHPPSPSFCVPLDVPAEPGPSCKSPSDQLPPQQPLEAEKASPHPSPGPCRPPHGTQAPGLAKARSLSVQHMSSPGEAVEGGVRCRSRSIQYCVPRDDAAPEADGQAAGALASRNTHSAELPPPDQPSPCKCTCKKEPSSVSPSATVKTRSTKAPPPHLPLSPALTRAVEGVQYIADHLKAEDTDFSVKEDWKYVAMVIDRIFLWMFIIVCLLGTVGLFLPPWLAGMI
T1 sequence (P17787 26-502): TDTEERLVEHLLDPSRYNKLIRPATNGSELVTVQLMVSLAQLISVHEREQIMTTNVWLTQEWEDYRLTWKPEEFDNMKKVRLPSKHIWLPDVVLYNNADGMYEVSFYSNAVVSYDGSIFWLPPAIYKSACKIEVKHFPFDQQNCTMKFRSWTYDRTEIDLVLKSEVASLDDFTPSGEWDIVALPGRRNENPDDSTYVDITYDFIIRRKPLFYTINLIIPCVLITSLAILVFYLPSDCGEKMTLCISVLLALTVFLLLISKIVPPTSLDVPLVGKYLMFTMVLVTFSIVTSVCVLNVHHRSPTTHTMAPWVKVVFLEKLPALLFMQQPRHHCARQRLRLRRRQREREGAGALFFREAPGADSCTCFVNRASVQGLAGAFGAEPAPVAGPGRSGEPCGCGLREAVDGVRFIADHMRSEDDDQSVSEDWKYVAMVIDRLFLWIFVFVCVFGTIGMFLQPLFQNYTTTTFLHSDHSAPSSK

Consider “Dihydro-AY-erythroidine [reference compound]”, for which the IC50 in assay [1] turned out to be 0.682 µM. For the molecule Picrotoxin, the IC50 in assay [2] worked out at 2.78 µM. For `CC(N)Cc1c[nH]c2ccc(Br)cc12` (stereo not drawn) [1-(5-bromo-1H-indol-3-yl)propan-2-amine], the IC50 on MAOA was 1.3 µM. Take `CNC(C)C(=O)c1c[nH]c2ccc(Br)cc12` (stereo not drawn) [drawing 184]: in assay [3], the IC50 came to 5.6 µM and the affinity corresponds to a Ki of 2.6 µM. In the case of `CC(N)Cc1c[nH]c2ccc(Cl)cc12` (stereo not drawn) [1-(5-chloro-1H-indol-3-yl) propan-2-amine], the IC50 at MAOA is 0.25 µM. With `Cc1ccc2[nH]cc(CC(C)N)c2c1` (stereo not drawn) [1-(5-methyl-1H-indol-3-yl) propan-2-amine], at MAOA, the IC50 is 1.5 µM. For `CC(N)Cc1c[nH]c2ccc(F)cc12` (stereo not drawn) [1-(5-fluoro-1H-indol-3-yl) propan-2-amine], on MAOA (previously reported data), the “MAOA inhibition (MAOI or not, in words)” value was “are MAOIs”. Also, the IC50 on MAOA is 0.45 µM. As to `CCC(N)C(=O)c1c[nH]c2ccc(F)cc12` (stereo not drawn) [2-amino-1-(5-fluoro-1H-indol-3-yl) butan-1-one], the IC50 in assay [4] was over 30 µM. As for `CNC(C)C(=O)c1c[nH]c2ccc(Br)cc12` (stereo not drawn) [drawing 187], on human DAT, a half-maximal response (EC50) required 2.1 µM and the DAT/SERT ratio came out at 0.14. The molecule also yielded an EC50 at human SERT of 0.295 µM. With `CNC(C)C(=O)c1c[nH]c2ccc(F)cc12` (stereo not drawn) [drawing 183], in assay [3], the IC50 was 3.5 µM and the Ki is 1.6 µM.

In assay [4], `CCC(N)Cc1c[nH]c2ccc(F)cc12` (stereo not drawn) [1-(5-fluoro-1H-indol-3-yl)butan-2-amine, reference compound] gave an IC50 of 2.48 µM and a Hill of 0.89. For `CC(N)Cc1c[nH]c2cc(F)ccc12` (stereo not drawn) [1-(6-fluoro-1H-indol-3-yl) propan-2-amine], on MAOA, the IC50 is 1.8 µM. Consider `CNC(C)C(=O)c1c[nH]c2ccc(Cl)cc12` (stereo not drawn) [drawing 188], for which, on human DAT, the concentration giving a half-maximal response (EC50) is 0.865 µM and the DAT/SERT ratio stood at 0.23. Moreover, the half-maximal effective concentration (EC50) on human SERT came to 0.2 µM.

Turning to `Cc1[nH]c2ccc(F)cc2c1CC(C)N` (stereo not drawn) [1-(5-fluoro-2-methyl-1H-indol-3-yl)propan-2-amine], the IC50 at MAOA is 4.1 µM. With `CNC(C)Cc1ccc2c(c1)OCO2` (stereo not drawn) [MDMA, 3,4-methylenedioxymethamphetamine], the concentration for a half-maximal effect (EC50) in the assay with neuritogenesis (Ly et al. Cell reports 2018, Figure S3, read-out: EC50 for promoting neuritogenesis) was 0.00741 µM. Further, the “Emax for promoting neuritogenesis” value with neuritogenesis (relative to ketamine, Ly et al. 2018) is listed as “approximately twice that of ketamine”. Regarding `CNC(C)Cc1c[nH]c2ccc(F)cc12` (stereo not drawn) [[1-(5-fluoro-1H-indol-3-yl)propan-2-yl](methyl)amine, reference compound], in assay [4], the IC50 is 0.45 µM; the Hill was found to be 1.01; the “MAOA inhibition (MAOI or not, in words)” value is “are MAOIs”. As to `CNCC(=O)c1c[nH]c2ccc(F)cc12` [1-(5-fluoro-1H-indol-3-yl)-2-(methylamino)ethan-1-one, reference compound], in assay [4], the Hill is listed as 1.02 and the “MAOA inhibition (MAOI or not, in words)” value is “is also an MAOI”. The IC50 in assay [4] (Table 10, Source: Original data, read-out: MAOA IC50) was 3.43 µM. In assay [3], `CNC(C)C(=O)c1c[nH]c2ccc(Cl)cc12` (stereo not drawn) [drawing 185] displayed an IC50 of 2.5 µM and a Ki of 1.1 µM. On to `CC(N)Cc1c[nH]c2ccccc12` (stereo not drawn) [1-(1H-indol-3-yl)propan-2-amine], for which, at MAOA, the IC50 is 0.38 µM. As to `CNC(C)C(=O)c1c[nH]c2ccc(F)cc12` (stereo not drawn) [drawing 186], the values for the concentration giving a half-maximal response (EC50) at human DAT and on human SERT were 0.62 µM and 0.19 µM, respectively. On human DAT, the DAT/SERT ratio is on record as 0.31.

A word on the Ki: it is the equilibrium dissociation constant of an inhibitor or competing ligand from its target. A lower Ki goes with tighter binding. As usually defined, the EC50 is the midpoint of the concentration-response curve.
